What all share (format): cell-based
Data set [1] relates to HS578T cells. In words: MTT metabolization, inhibition of HS578T cell proliferation. The method, then: (§1) These triple negative breast cancer cell lines were obtained from the American Type Culture Collection Cell Biology Collection (ATCC) (Manassas, Va.). The medium was changed every 2 days.
(§2) Cell proliferation and growth experiments were carried out using 3-(4,5-dimethylthiazol-2-yl)-2,5-diphenyltetrazolium bromide (MTT) uptake assays, where MTT is reduced to purple formazan by the mitochondria of living cells. Increase in cell number is detected by augmented MTT metabolization, and decrease in cell number is reflected by a decrease. […] The cells were treated with the drug at different concentrations to plot the dose-response curves in all cancer cell lines using in the study. […] After treatment, each well was replaced with 250 μL of fresh medium containing MTT ([…]) and incubated for 1 hour. The medium was then removed and 500 μL of dimethyl sulfoxide was added to each well. The plate was agitated in the dark for 5 minutes to dissolve the MTT-formazan crystals. The absorbance of the samples was recorded at 562 nm in a multi-well plate reader (BMG labtech). Results were plotted as the mean values of quadruplicates from a representative experiment that was repeated at least two independent times.
(§3) Combination index values less than 1 indicate synergism, values equal to 1 indicate an additive effect, whereas values greater than 1 indicate antagonism. Combination index values from three independent experiments were generated.

The subject of data set [2] is BT-549 cells. Kind of data set: MTT metabolization, inhibition of BT-549 cell proliferation. The method, then:
as §1, §2, §3

Data set [3] has as its system MDA-MB-231 cells. Kind of data set: MTT metabolization, inhibition of MDA-MB-231 cell proliferation. Here is the method: as §1, §2, §3

Regarding `CC(=O)O[C@@]12CO[C@@H]1C[C@H](O)[C@@]1(C)C(=O)[C@H](O)C3=C(C)[C@@H](OC(=O)[C@H](O)[C@@H](NC(=O)OC(C)(C)C)c4ccccc4)C[C@@](O)([C@@H](OC(=O)c4ccccc4)[C@H]21)C3(C)C` [Docetaxel, docetaxel, reference compound], in data set [1] (Homo sapiens, Hs-578T, Docetaxel 0.4 nM alone, read-out: Percentage inhibition Docetaxel mean), the percent inhibition of cell proliferation at 0.0004 µM is 73%. In addition, the percent inhibition of cell proliferation at 0.0008 µM in data set [1] (Homo sapiens, Hs-578T, Docetaxel 0.8 nM alone, read-out: Percentage inhibition Docetaxel mean) was determined as 49.6%. In data set [1] (Homo sapiens, Hs-578T, Docetaxel 1.2 nM alone, read-out: Percentage inhibition Docetaxel mean), the percent inhibition of cell proliferation at 0.0012 µM came out at 45.8%. Besides, in data set [1] (Homo sapiens, Hs-578T, Docetaxel 1.6 nM alone, read-out: Percentage inhibition Docetaxel mean), the percent inhibition of cell proliferation at 0.0016 µM came to 47.9%. Moreover, the inhibition – broadly, the percentage by which the read-out fell short of the control – at 0.0004 µM in data set [2] (Homo sapiens, BT-549, Docetaxel 0.4 nM alone, read-out: Percentage inhibition Docetaxel mean) is 82%. Moreover, in data set [2] (Homo sapiens, BT-549, Docetaxel 0.8 nM alone, read-out: Percentage inhibition Docetaxel mean), the inhibition at 0.0008 µM was found to be 36.1%. Also, in data set [2] (Homo sapiens, BT-549, Docetaxel 1.2 nM alone, read-out: Percentage inhibition Docetaxel mean), the inhibition at 0.0012 µM was 36.5%. The inhibition at 0.0016 µM in data set [2] (Homo sapiens, BT-549, Docetaxel 1.6 nM alone, read-out: Percentage inhibition Docetaxel mean) is 36.1%. The viability at 0.0004 µM in data set [3] (Homo sapiens, MDA-MB-231, Docetaxel 0.4 nM alone, read-out: Percentage inhibition Docetaxel mean) worked out at 59.3%. Also, the viability at 0.0008 µM in data set [3] (Homo sapiens, MDA-MB-231, Docetaxel 0.8 nM alone, read-out: Percentage inhibition Docetaxel mean) amounted to 33.8%. For the same compound, the viability at 0.0012 µM in data set [3] (Homo sapiens, MDA-MB-231, Docetaxel 1.2 nM alone, read-out: Percentage inhibition Docetaxel mean) turned out to be 25.3%. The viability at 0.0016 µM in data set [3] (Homo sapiens, MDA-MB-231, Docetaxel 1.6 nM alone, read-out: Percentage inhibition Docetaxel mean) was 25.3%.
For the compound `N.N.O=C([O-])C1(C(=O)[O-])CCC1.[Pt+2]` [Carboplatin, carboplatin, reference compound], the “Percentage inhibition Carboplatin mean” value was 70.90% in data set [1] (Carboplatin 80 nM alone); 60.26% in data set [1] (Carboplatin 120 nM alone); 50.49% in data set [1] (Carboplatin 160 nM alone); 24.33% in data set [1] (Carboplatin 200 nM alone); 37.09% in data set [2] (Carboplatin 80 nM alone); 21.43% in data set [2] (Carboplatin 120 nM alone). Also, the “Percentage inhibition Carboplatin mean” value worked out at 19.39% in data set [2] (Carboplatin 160 nM alone); 15.69% in data set [2] (Carboplatin 200 nM alone); 74.70% in data set [3] (Carboplatin 80 nM alone); 62.30% in data set [3] (Carboplatin 120 nM alone); 61.11% in data set [3] (Carboplatin 160 nM alone); 58.21% in data set [3] (Carboplatin 200 nM alone).
